Here are results for 19 molecules from US10662187B2, “Bruton's tyrosine kinase inhibitors” (Zibo Biopolar Changsheng Pharmaceutical Co. Ltd., priority 2016, dated 2020).

Each structure is given as a SMILES string.

In experiment [1] the target is T1, BTK (Homo sapiens (Human), UniProt Q06187). The experiment is described as follows: Btk kinase assay (HTRF). Type of experiment: biochemical. The settings on record: [ATP]=80 μM, BTK=3.4 nM; read-out: BTK Inhibition. An outline of the steps:
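HTRF read-out with enzyme, inhibitor, ATP and 1 μM peptide substrate in 50 mM Hepes pH 7.0, 0.02% NaN3, 0.01% BSA, 0.1 mM orthovanadate. Activity measured across compound concentrations against no-inhibitor controls, with no-enzyme wells as baseline.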
Target sequence in this assay (Q06187 whole entry, species assumed): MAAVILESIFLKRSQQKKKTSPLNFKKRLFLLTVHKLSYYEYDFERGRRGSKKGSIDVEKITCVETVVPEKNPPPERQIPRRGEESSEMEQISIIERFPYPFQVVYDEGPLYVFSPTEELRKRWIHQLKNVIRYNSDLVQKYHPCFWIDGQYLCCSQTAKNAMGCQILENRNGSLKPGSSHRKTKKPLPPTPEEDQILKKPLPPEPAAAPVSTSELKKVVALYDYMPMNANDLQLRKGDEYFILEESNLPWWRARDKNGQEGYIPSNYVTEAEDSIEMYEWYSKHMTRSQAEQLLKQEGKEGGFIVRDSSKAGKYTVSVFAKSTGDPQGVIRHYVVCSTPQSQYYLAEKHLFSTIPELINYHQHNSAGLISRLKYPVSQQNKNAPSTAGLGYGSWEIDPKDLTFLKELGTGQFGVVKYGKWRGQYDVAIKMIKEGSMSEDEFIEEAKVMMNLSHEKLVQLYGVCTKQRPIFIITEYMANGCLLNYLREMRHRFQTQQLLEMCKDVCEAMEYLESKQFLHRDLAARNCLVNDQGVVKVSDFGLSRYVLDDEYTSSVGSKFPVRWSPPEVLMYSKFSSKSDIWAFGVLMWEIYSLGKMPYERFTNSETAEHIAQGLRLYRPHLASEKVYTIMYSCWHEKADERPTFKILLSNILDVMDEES
A general note: In TR-FRET formats the signal depends on donor and acceptor labels being close together.

Experiment [2] has as its target T1, BTK. The experiment is described as follows: Btk occupancy in cellular assays (PCI-33380 labeling, Jeko-1 cells). It is filed as cell-based. The settings on record: 1.5 h pre-incubation with compound, PCI-33380 5 μM 1 h. As for the experimental part:
Btk Occupancy in Cellular Assays
For PCI-33380 labeling of human B cells, 10^6 Jeko-1 cells were pre-incubated with compound for 1.5 h before labeling. Then cells were treated with PCI-33380 at 5 μM for 1 h. Washed, lysed in Ripa buffer containing sample reducing agent, and analyzed by SDS/PAGE and fluorescent gel scanning using a Typhoon scanner 9500 (GE Healthcare) (Ex, 532 nm; Em, 555 nm). The gel was then blotted and total Btk levels detected by standard Western blot with Btk antibody (CST).
Target sequence in this assay (Q06187 whole entry): as the sequence (Q06187 whole entry, species assumed) above

For experiment [3], the target named is Btk (Mus musculus (Mouse), UniProt P35991). The experiment is described as follows: Btk occupancy in vivo (PBMCs or splenocytes, PCI-33380 labeling). The settings on record: after 4 hours, Babc/L mice. The method, then:
For analysis of Btk occupancy in Babc/L mice following oral dosing of compounds after 4 hours. Isolating peripheral blood mononuclear cells (PBMCs) with mouse peripheral blood separation kit (Hao Yang Biological Manufacture CO., LTD, Tianjin) were collected from Babc/L mice (1 ml blood from two mice). Spleens were processed to splenocytes followed by 5 min incubation in red blood cell lysing buffer (from mouse peripheral blood separation kit). PBMCs or splenocytes were then PCI-33380-labeled and lysates analyzed by fluorescent gel scanning as described in cellular assays.

The next experiment concerns Ramos cells. The experiment is described as follows: Calcium flux assay, anti-IgM stimulated Ramos cells. It is filed as cell-based. To be noted: Ramos cells stimulated with goat anti-human IgM antibody 10 μg/ml; read-out: Ramos Ca Flux. As for the experimental part: Calcium FluxAssay Calcium flux fluorescence-based assays were performed in […] (Hamamatsu Photonics) fluorometric imaging plate reader according to manufacturer instructions. […] Then 12.5 […] 2× dye loading solution (Fluo-4 NW Calcium Assay Kits, Invitrogen) was added per well of a 384-well plate. Afterwards, actively growing Ramos cells (ATCC) in RPM1640 medium supplemented with 10% FBS (Invitrogen) were washed and re-plated in assay buffer (from Fluo-4 NW Calcium Assay Kits, Invitrogen) to approximately 6.4×10^6/ml (80000 cells/12.5 μL in 384-well plates). The plates were incubated at 37° C. for 30 minutes, then at room temperature for an additional 30 minutes. The plates were now ready to be used in an experiment. Immediately after the transfer and a 10-s recording of baseline fluorescence, the compound treated cells were stimulated with a goat anti-human IgM antibody (10 μg/ml; Jackson Immuno Research) and read in a FDSS for 240 seconds. Difference between the signal and that at baseline, designated adjusted relative fluorescence unit, was calculated by using a custom Excel (Microsoft, Redmond, Wash.) template to determine IgM-induced calcium influx and its inhibition by compounds. The table belows show the result.

Sequence of Btk (P35991 whole entry): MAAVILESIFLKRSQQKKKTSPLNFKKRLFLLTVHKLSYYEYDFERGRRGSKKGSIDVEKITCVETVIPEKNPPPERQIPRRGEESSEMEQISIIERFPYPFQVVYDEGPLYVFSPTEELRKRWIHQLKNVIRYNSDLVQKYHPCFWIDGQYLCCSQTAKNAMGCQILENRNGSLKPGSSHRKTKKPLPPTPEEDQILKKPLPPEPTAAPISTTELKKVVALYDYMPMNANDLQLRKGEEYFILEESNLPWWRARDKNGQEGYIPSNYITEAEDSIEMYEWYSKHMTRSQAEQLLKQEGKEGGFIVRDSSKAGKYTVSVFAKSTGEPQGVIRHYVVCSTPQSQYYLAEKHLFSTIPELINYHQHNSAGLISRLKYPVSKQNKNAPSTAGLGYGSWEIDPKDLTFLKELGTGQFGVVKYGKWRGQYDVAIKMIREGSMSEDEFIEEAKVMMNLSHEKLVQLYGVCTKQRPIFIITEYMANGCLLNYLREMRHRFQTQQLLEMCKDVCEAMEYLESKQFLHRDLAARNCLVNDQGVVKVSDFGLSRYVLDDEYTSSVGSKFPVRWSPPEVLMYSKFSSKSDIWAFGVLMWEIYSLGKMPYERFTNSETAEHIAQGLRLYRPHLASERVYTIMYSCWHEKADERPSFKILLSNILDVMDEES

For `C=CC(=O)N1CCC[C@@H](n2nc(-c3ccc(Oc4cccc(OC)c4Cl)cc3)c3cnccc32)C1` [Compound 2, (R)-1-(3-(3-(4-(2-chloro-3-methoxyphenoxy)phenyl)-1H-pyrazolo[4,3-c]pyridin-1-yl)piperidin-1-yl)prop-2-en-1-one], at BTK [1], the IC50 was under 10 nM. Further, at BTK [2], the “concentration sufficient to fully occupy the active site of Btk” value (“concentration sufficient” for short) is 100 nM. Besides, the “Btk occupancy in vivo” value on Btk [3] (10 mg/kg single oral dose) was “full occupancy”.
Regarding `C=CC(=O)N1CC[C@@H](n2nc(-c3ccc(Oc4cccc(OC)c4F)cc3)c3cnccc32)C1` [Compound 3, (R)-1-(3-(3-(4-(2-fluoro-3-methoxyphenoxy)phenyl)-1H-pyrazolo[4,3-c]pyridin-1-yl)pyrrolidin-1-yl)prop-2-en-1-one], the IC50 on BTK [1] was under 10 nM. In addition, the “concentration sufficient” value at BTK [2] amounted to 50 nM. In addition, the “Btk occupancy in vivo” value at Btk [3] (10 mg/kg single oral dose) was “full occupancy”.
On to `C=CC(=O)N1CC[C@@H](n2nc(-c3ccc(Oc4ccccc4)c(Cl)c3)c3cnccc32)C1` [Compound 11, (R)-1-(3-(3-(3-chloro-4-phenoxyphenyl)-1H-pyrazolo[4,3-c]pyridin-1-yl)pyrrolidin-1-yl)prop-2-en-1-one], for which the figures for the IC50 at BTK [1] and with Ramos cells were under 10 nM and 100 to 1000 nM, respectively.
`C=CC(=O)N1CCC[C@@H](n2nc(-c3ccc(Oc4cccc(F)c4F)cc3)c3cnccc32)C1` [Compound 17, (R)-1-(3-(3-(4-(2,3-difluorophenoxy)phenyl)-1H-pyrazolo[4,3-c]pyridin-1-yl)piperidin-1-yl)prop-2-en-1-one]: the IC50 at BTK [1] is under 10 nM; in the experiment on Ramos cells it was 10 to 100 nM. In addition, the “concentration sufficient” value at BTK [2] is 100 nM.
On to `C=CC(=O)N1CC[C@@H](n2nc(-c3ccc(Oc4cccc(F)c4F)cc3)c3cnccc32)C1` [Compound 18, (R)-1-(3-(3-(4-(2,3-difluorophenoxy)phenyl)-1H-pyrazolo[4,3-c]pyridin-1-yl)pyrrolidin-1-yl)prop-2-en-1-one], for which the values for the IC50 at BTK [1] and with Ramos cells were under 10 nM and 10 to 100 nM, respectively.
On to `C=CC(=O)N1CC[C@@H](n2nc(-c3ccc(Oc4cccc(Cl)c4F)cc3)c3cnccc32)C1` [Compound 19, (R)-1-(3-(3-(4-(3-chloro-2-fluorophenoxy)phenyl)-1H-pyrazolo[4,3-c]pyridin-1-yl)pyrrolidin-1-yl)prop-2-en-1-one], for which the IC50 at BTK [1] was under 10 nM; in the experiment with Ramos cells, 10 to 100 nM.
As to `C=CC(=O)N1CCC[C@@H](n2nc(-c3ccc(Oc4cccc(Cl)c4F)cc3)c3cnccc32)C1` [Compound 20, (R)-1-(3-(3-(4-(3-chloro-2-fluorophenoxy)phenyl)-1H-pyrazolo[4,3-c]pyridin-1-yl)piperidin-1-yl)prop-2-en-1-one], the IC50 was under 10 nM at BTK [1] and 10 to 100 nM in the experiment on Ramos cells.
For the molecule `C=CC(=O)N1CC[C@@H](n2nc3ccncc3c2-c2ccc(Oc3cccc(Cl)c3Cl)cc2)C1` [Compound 41, (R)-1-(3-(3-(4-(2,3-dichlorophenoxy)phenyl)-2H-pyrazolo[4,3-c]pyridin-2-yl)pyrrolidin-1-yl)prop-2-en-1-one], the values for the IC50 at BTK [1] and in the experiment on Ramos cells were under 10 nM and 10 to 100 nM, respectively. Moreover, the “concentration sufficient” value at BTK [2] is recorded as 100 nM.
`C=CC(=O)N1CCC[C@@H](n2nc3ccncc3c2-c2ccc(Oc3cccc(Cl)c3Cl)cc2)C1` [Compound 43, (R)-1-(3-(3-(4-(2,3-dichlorophenoxy)phenyl)-2H-pyrazolo[4,3-c]pyridin-2-yl)piperidin-1-yl)prop-2-en-1-one]: the IC50 is under 10 nM at BTK [1] and 10 to 100 nM with Ramos cells. Besides, the “concentration sufficient” value on BTK [2] amounted to 100 nM.
Consider `C=CC(=O)N1CC[C@@H](n2nc(-c3ccc(Sc4cccc(F)c4)cc3)c3cnccc32)C1` [Compound 58, (R)-1-(3-(3-(4-((3-fluorophenyl)thio)phenyl)-1H-pyrazolo[4,3-c]pyridin-1-yl)pyrrolidin-1-yl)prop-2-en-1-one], for which the IC50 is under 10 nM at BTK [1] and 10 to 100 nM in the experiment on Ramos cells.
As to `C=CC(=O)N1CC[C@@H](n2nc(-c3ccc(Oc4ccccc4)c(F)c3)c3cnccc32)C1` [Compound 61, (R)-1-(3-(3-(3-fluoro-4-phenoxyphenyl)-1H-pyrazolo[4,3-c]pyridin-1-yl)pyrrolidin-1-yl)prop-2-en-1-one], the figures for the IC50 at BTK [1] and in the experiment with Ramos cells were under 10 nM and 100 to 1000 nM, respectively.
Consider `C=CC(=O)N1CCC[C@@H](n2nc(-c3ccc(Oc4cccc(F)c4)cc3)c3cnccc32)C1` [Compound 62, (R)-1-(3-(3-(4-(3-fluorophenoxy)phenyl)-1H-pyrazolo[4,3-c]pyridin-1-yl)piperidin-1-yl)prop-2-en-1-one], for which the figures for the IC50 on BTK [1] and in the experiment on Ramos cells were under 10 nM and 100 to 1000 nM, respectively.
With `C=CC(=O)N1CC[C@@H](n2nc(-c3ccc(Oc4cccc(F)c4)cc3)c3cnccc32)C1` [Compound 63, (R)-1-(3-(3-(4-(3-fluorophenoxy)phenyl)-1H-pyrazolo[4,3-c]pyridin-1-yl)pyrrolidin-1-yl)prop-2-en-1-one], the IC50 was under 10 nM at BTK [1] and 100 to 1000 nM in the experiment with Ramos cells.
For the molecule `C=CC(=O)N1CC[C@@H](n2nc(-c3ccc(Oc4cccc(OC)c4)cc3)c3cnccc32)C1` [Compound 64, (R)-1-(3-(3-(4-(3-methoxyphenoxy)phenyl)-1H-pyrazolo[4,3-c]pyridin-1-yl)pyrrolidin-1-yl)prop-2-en-1-one], the IC50 was under 10 nM at BTK [1] and 10 to 100 nM with Ramos cells.
Regarding `C=CC(=O)N1CC[C@@H](n2nc(-c3ccc(Oc4cccc(OC)c4F)cc3)c3cncc(OC)c32)C1` [Compound 79, (R)-1-(3-(3-(4-(2-fluoro-3-methoxyphenoxy)phenyl)-7-methoxy-1H-pyrazolo[4,3-c]pyridin-1-yl)pyrrolidin-1-yl)prop-2-en-1-one], at BTK [1], the IC50 was under 10 nM. In addition, the “concentration sufficient” value at BTK [2] is 50 nM.
For `C=CC(=O)N1CC[C@@H](n2nc(-c3ccc(Oc4cccc(OC)c4F)cc3)c3cncc(OCC)c32)C1` [Compound 80, (R)-1-(3-(7-cthoxy-3-(4-(2-fluoro-3-methoxyphenoxy)phenyl)-1H-pyrazolo[4,3-c]pyridin-1-yl)pyrrolidin-1-yl)prop-2-en-1-one] the same measures were under 10 nM and 50 nM.
Turning to `C=CC(=O)N1CCCC1Cn1nc(-c2ccc(Oc3cccc(OC)c3F)cc2)c2cncc(OC)c21` (stereo not shown) [Compound 91, 1-(2-((3-(4-(2-fluoro-3-methoxyphenoxy)phenyl)-7-methoxy-1H-pyrazolo[4,3-c]pyridin-1-yl)methyl)pyrrolidin-1-yl)prop-2-en-1-one], the IC50 on BTK [1] was under 10 nM. For the same molecule, the “Btk occupancy in vivo” value at Btk [3] (5 mg/kg single oral dose) is reported as “full occupancy”.
In the case of `C=CC(=O)N1CCC[C@@H](n2nc(-c3ccc(Oc4cccc(OC)c4F)cc3)c3cncc(OCCO)c32)C1` [Compound 98, (R)-1-(3-(3-(4-(2-fluoro-3-methoxyphenoxy)phenyl)-7-(2-hydroxyethoxy) 1H-pyrazolo[4,3-c]pyridin-1-yl)piperidin-1-yl)prop-2-en-1-one], the IC50 at BTK [1] was under 10 nM. On BTK [2], the “concentration sufficient” value was 100 nM.
Regarding `C=CC(=O)N1CCC[C@@H](n2nc(-c3ccc(Oc4cccc(OC)c4F)cc3)c3cncc(OC4CCOC4)c32)C1` (stereo partly drawn) [Compound 99, 1-((3R)-3-(3-(4-(2-fluoro-3-methoxyphenoxy)phenyl)-7-((tctrahydrofuran-3-yl)oxy)-1H-pyrazolo[4,3-c]pyridin-1-yl)piperidin-1-yl)prop-2-en-1-one], the IC50 at BTK [1] is under 10 nM. For the same molecule, the “concentration sufficient” value at BTK [2] came to 100 nM.
